Data reported in US20250034116A1, “1,4-DIHETEROCYCLIC SUBSTITUTED AROMATIC RING OR AROMATIC HETEROCYCLIC COMPOUND AND USE THEREOF” (BeBetter Med Inc., priority 2022, published 2025).

Assays:
Format in all cases: biochemical
[1] = tested on: CYP enzymes in human liver microsomes (HLM); assay: Inhibition of 20-HETE production in human liver microsomes (HLM)
Summary of the method: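 Liver microsomes (human or mouse) or recombinant CYP4F2 or CYP4A11 in potassium phosphate buffer mixed with compound, then with 400 μM substrate solution (stock). After 10 min preincubation at 37 °C, reaction started with 6 mM NADPH solution (stock) and run 25 min at 37 °C. 20-HETE formation quantified by LC-MS/MS; IC50 from a four-parameter Hill fit, with percent inhibition also reported at 1000, 500 or 100 nM.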

[2] = tested on: CYP enzymes in rat liver microsomes (RLM); assay: Inhibition of 20-HETE production in rat liver microsomes (RLM)
Summary of the method: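 Test compounds were dissolved in DMSO, diluted in acetonitrile/DMSO (3:1), and 2 μl was mixed with 100 μl potassium phosphate buffer containing rat liver microsomes in a 96-well plate. Duplicate 30 μl aliquots received 15 μl of 400 μM substrate, were preheated at 37° C. for 10 minutes, then started with 15 μl of 6 mM NADPH for 25 minutes. LC-MS/MS measured 20-HETE formation.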

[3] = tested on: CYP enzymes in mouse liver microsomes (MLM); assay: Inhibition of 20-HETE production in mouse liver microsomes (MLM)
Description: Experimental principle: The inhibitory activity of 20-HETE production is evaluated by testing the inhibitory effects of the compound on human liver microsomes (HLM), rat liver microsomes (RLM), mouse liver microsomes (MLM), or […] CYP4 subtype enzymes (CYP4F2). This assay employs HLM, RLM, or MLM along with recombinant CYP4F2 (rCYP4F2) and recombinant CYP4A11 (rCYP4A11), which are […] CYP4 subtype enzymes, to detect the effects of the test compound at different concentrations on the metabolic rate of enzyme-specific substrates, to determine the inhibitory effects of the test compound on CYP enzymes in HLM, RLM, or MLM.
Experimental methods: Dissolve the test compound in DMSO, and subsequently dilute it with an acetonitrile and DMSO mixture (3:1). Add 2 μl of varying concentrations of the test compound and 100 μl of potassium phosphate buffer containing either liver microsomes or recombinant enzymes to a 96-well plate. After mixing well, transfer 30 μl to another well (in duplicate), add 15 μl of 400 μM substrate solution, and mix well again. Preheat at 37° C. for 10 minutes, and then add 15 μl of 6 mM NADPH and incubate at 37° C. for 25 minutes. After 25 minutes, add 160 μl of acetonitrile solution (containing 0.1 μg/ml internal standard) to stop the reaction. Mix well, centrifuge at 3500 g for 15 minutes, and then analyze the supernatant using LC-MS/MS.
Plot the compound concentration on the x-axis and the inhibition rate on the y-axis to draw the curve. Use GraphPad Prism 5 software to fit the curve and calculate the IC50. The formula is Y=Bottom+(Top−Bottom)/(1+10^((Log IC50−X)×HillSlope)). X represents the logarithmic concentration of the inhibitor, and Y represents the relative enzyme activity at a given inhibitor concentration (relative to the condition without the inhibitor).
Calculate the inhibition percentages at concentrations of 1000 nM, 500 nM, or 100 nM as well as the half-maximal inhibitory concentration (IC50) of the test compound from the above experiment.

IC50 [1] [nM] | HLM (% inh @ 500 nM) [1] [%] | IC50 [2] [nM] | RLM (% inh @ 500 nM) [2] [%] | IC50 [3] [nM] | Compound
16.1 | 92.92 | 29.5 | 77.32 | 174 | O=C(N1CCC(c2ccc(-c3cn[nH]c3)c(F)c2F)CC1)C1(O)CCCCC1 [Compound 110, (4-(2,3-difluoro-4-(1H-pyrazol-4-yl)phenyl)piperidin-1-yl)(1-hydroxycyclohexyl) methanone]
11.1 | 79.54 | 9.78 |  | 1520 | C[C@H]1CN(c2ccc(-c3cn[nH]c3)c(F)c2F)CCN1C(=O)N1CCCC1 [Compound 105, (S)-(4-(2,3-difluoro-4-(1H-pyrazol-4-yl)phenyl)-2-methylpiperazin-1-yl)(pyrrolidin-1-yl) methanone]
 | 91.77 |  | 80.86 | 296 | O=C(CC1CCCC1)N1CCC(c2ccc(-c3cn[nH]c3)c(F)c2F)CC1 [Compound 93, 2-cyclopentyl-1-(4-(2,3-difluoro-4-(1H-pyrazol-4-yl)phenyl)piperidin-1-yl)ethan-1-one]
18.3 |  | 17.9 | 74.10 | 1900 | O=C(N1CCCC1)N1CC2CN(c3ccc(-c4cn[nH]c4)c(F)c3F)CC2C1 (stereo not drawn) [Compound 127, (5-(2,3-difluoro-4-(1H-pyrazol-4-yl)phenyl)hexahydropyrrolo[3,4-c]pyrrol-2 (1H)-yl)(pyrrolidin-1-yl) methanone]
32.8 | 88.29 |  | 74.61 | 1850 | O=C(C1CCCC1)N1CCC2(CCN(c3ccc(-c4cn[nH]c4)cc3F)C2)C1 (stereo not drawn) [Compound 124, cyclopentyl(7-(2-fluoro-4-(1H-pyrazol-4-yl)phenyl)-2,7-diazaspiro[4.4]nonan-2-yl) methanone]
12 | 80.55 |  | 74.73 | 743 | C[C@@H]1CN(c2ccc(-c3cn[nH]c3)c(F)c2F)CCN1C(=O)N1CCCC1 [Compound 103, (R)-(4-(2,3-difluoro-4-(1H-pyrazol-4-yl)phenyl)-2-methylpiperazin-1-yl)(pyrrolidin-1-yl) methanone]
16.6 |  |  | 44.45 | 1570 | O=C(Nc1ccccc1)C1CCN(c2ccc(-c3cn[nH]c3)cc2)CC1 [Compound 58, 1-(4-(1H-pyrazol-4-yl)phenyl)-N-phenylpiperidine-4-carboxamide]
7.62 |  | 22.8 |  | 414 | CC1CN(c2ccc(-c3cn[nH]c3)cc2F)CC(C)N1C(=O)N1CCCC1 (stereo not drawn) [Compound 130, (4-(2-fluoro-4-(1H-pyrazol-4-yl)phenyl)-2,6-dimethylpiperazin-1-yl)(pyrrolidin-1-yl) methanone]
23.6 |  | 33.4 | 69.55 | 720 | O=C1CCC(C(=O)N2CCC(c3ccc(-c4cn[nH]c4)c(F)c3F)CC2)CC1 [Compound 107, 4-(4-(2,3-difluoro-4-(1H-pyrazol-4-yl)phenyl)piperidine-1-carbonyl)cyclohexane-1-one]
23.2 | 91.17 | 10.7 | 84.57 | 2810 | O=C(N1CCC(c2ccc(-c3cn[nH]c3)cc2F)CC1)N1CC2CCCC2C1 (stereo not drawn) [Compound 106, (4-(2-fluoro-4-(1H-pyrazol-4-yl)phenyl)piperidin-1-yl)(hexahydrocyclopenta[c]pyrrol-2 (1H)-yl) methanone]
